In patent publication US20170290814A1, “METHODS OF TREATMENT OF CHOLESTASIS AND FIBROSIS” (GENFIT, priority 2016, published 2017):

Tested on: TGFβ1-induced expression of α-SMA protein in human HSC
Assay: α-SMA ELISA in TGFβ1-activated human hepatic stellate cells
Type: cell-based
Details: [Cpd] = 3 μM, 1 h preincubation, TGFβ1 1 ng/ml, 48 h
Experimental: Serum-deprived HSC were preincubated for 1 hour with RM-5061 before the activation with the profibrogenic cytokine TGFβ1 (1 ng/ml). After 48 hours of incubation, the α-SMA content was measured by ELISA. The obtained values were transformed into percentage inhibition over TGFβ1 control. Data are presented as mean (quadruplicates)±standard error of the mean (SEM). Statistical analyses were performed by one-way ANOVA followed by Bonferroni post-hoc tests, using Sigma Plot 11.0 software. [*: p<0.05; **: p<0.01; ***: p<0.001 (comparison versus TGFβ1 1 ng/mL group)]. The curve fitting and the calculation of half maximal inhibitory concentration (IC50) were performed with XLFit software 5.3.1.3.
Serum-deprived HSC were preincubated for 1 hour with Cpd.5 before the activation with the profibrogenic cytokine TGFβ1 (1 ng/ml). After 48 hours of incubation, the expression of α-SMA was measured by ELISA. The obtained values were transformed into percentage inhibition over TGFβ1 control. Data are presented as mean (triplicates)±standard deviation (SD). Statistical analyses were performed by one-way ANOVA followed by Bonferroni post-hoc tests, using Sigma Plot 11.0 software. [*: p<0.05; **: p<0.01; ***: p<0.001 (comparison versus TGFμ1 1 ng/mL group)]. The curve fitting and the calculation of half maximal inhibitory concentration (IC50) were performed with XLFit software 5.3.1.3.
The human primary hepatic stellate cells (hHSC) (Innoprot) were cultured in STeCM medium (ScienCell cat #5301) that was supplemented with 2% fetal bovine serum (FBS, ScienCell cat #0010), 1% penicillin/streptomycin (ScienCell cat #0503) and stellate cell growth supplement (SteCGS; ScienCell cat #5352). Cell culture flasks were coated with Poly-L Lysine (Sigma cat #P4707) for a better adherence.
The human primary hepatic stellate cells (hHSC) (Innoprot) were cultured under standard conditions, as described above. The cells were subsequently plated at a density of 2×10^4cells/well or 6,5×10^3 cells/well into 96-well or 384-well plates respectively. The next day, cell-culture medium was removed, and cells were washed with PBS (Invitrogen cat #14190). Then, hHSC were deprived for 24 hours in serum-free and SteCGS-free medium. For the treatments with compounds of formula (I), the serum-deprived hHSC were preincubated for 1 hour with the compounds followed by addition of the profibrogenic stimuli TGFβ1 (PeproTech cat #100-21, 1 ng/mL) in serum-free and SteCGS-free medium for an additional 48 hour period. At the end of treatment, the cell culture supernatants of treated-HSC were transferred into a new plate before storage at −20° C.The cells were washed with PBS (Invitrogen, cat #14190) before the addition of lysis buffer (CelLytic™ MT reagent; Sigma #C3228). Plates were then incubated for 30 min on ice using a plate shaker, before storage at −20° C.
The level of α-SMA was measured using a Sandwich ELISA. Briefly, the wells of an ELISA plate were first coated with the capture antibody (mouse monoclonal anti-ACTA2, Abnova) at 4° C. overnight. After 3 washes in PBS +0.2% Tween 20, a blocking solution consisting of PBS +0.2% BSA was added for one hour followed by another washing cycle. The cell lysates were transferred into the wells for binding to the capture antibody for a period of 2 h at room temperature. After the washing procedure, the detection antibody (biotinylated mouse monoclonal anti-ACTA2, Abnova) was added for 2 hours at room temperature followed by 3 washes. For the detection, an HRP-conjugated Streptavidin (R&D Systems cat #DY998) was first applied for 30 min at room temperature. After washing, the HRP substrate TMB (;BD, #555214) was added and incubated for 7 min at room temperature in the dark. Upon oxidation, TMB forms a water-soluble blue reaction product that becomes yellow with addition of sulfuric acid (solution stop), enabling accurate measurement of the intensity at 450 nm using a spectrophotometer. […]

| Compound | % I over TGFβ (α-SMA) [%] |
| --- | --- |
| O=C(Nc1nc(-c2ccc3ccccc3c2)cs1)c1cc([N+](=O)[O-])ccc1Cl [Cpd4, 2-chloro-N-[4-(2-naphthyl)-1,3-thiazol-2-yl]-5-nitrobenzamide] | 53 |
| Cc1sc(NC(=O)c2c(F)cccc2F)nc1-c1ccccc1 [Cpd3, 2,6-difluoro-N-(5-methyl-4-phenyl-1,3-thiazol-2-yl)benzamide] | 48 |
| COc1ccccc1C(=O)Nc1nc(-c2cccs2)c(NC(=O)c2ccccc2)s1 [Cpd2, N-(5-benzamido-4-(thiophen-2-yl)-1,3-thiazol-2-yl)-2-methoxybenzamide] | 43 |
| O=C(O)c1ccccc1-c1ccccc1C(=O)Nc1nc2ccccc2s1 [Cpd1, 2′-(benzo[d]thiazol-2-ylcarbamoyl)-[1,1′-biphenyl]-2-carboxylic acid] | 40 |
